Data on 19 compounds can be found in patent US12427155B2, “Treatment for tau-related diseases” (The Regents of the University of California, priority 2019, dated 2025).

“Also recorded” adds a separate entry of the source. Like-named read-outs stand apart in the source and are kept apart here. Where a SMILES comes first, the peptide text is derived from it. The star is where a group is joined. Cbz = O=C(OCc1ccccc1)*

Series [1] deals with pThr231Tau/tTau. The series is described as follows: pThr231Tau/tTau ratio (ELISA) in APP^dp iPSC-derived FAD neurons. The class given is cell-based, human. As to conditions: for pThr231Tau/tTau, dosage effect: dose range; for abrogation of the atorvastatin-induced decrease in pThr231Tau/tTau ratio: 3 days.
The subject of series [2] is pThr231Tau/tTau. The series is described as follows: pThr231Tau/tTau in non-demented control (NDC) neurons. The following applies: NDC neurons with two copies of APP.
For another series, the system named is Tau (PHF-1). Kind of series: PHF-1 (Tau) staining of 4RTau-tg mouse brain sections. As to conditions: 4R Tau-tg mice, 25 mg/kg daily oral gavage, 3 months. The format is in vivo.
The test system of another series is iPSC-derived astrocytes. From the text: Scale bar, 10 μm. […] Astrocytic viability (blue line) was plotted against results from FIGS. 1D and S1A for statins (neuronal viability and pThr231Tau/Tau ratio).
The conditions of series [3]: lower concentrations that sufficed to alter brain cholesterol metabolism; Mast et al., 2017b; cited from earlier work.
The conditions of series [4]: human, in vivo; cited from earlier work.
The test system of series [5] is APP^dp1-6 neurons. The series is described as follows: cell viability of APP^dp1-6 iPSC-derived neurons. The following applies: dose range.
The test system of series [6] is APP^dp1-6 neurons.
In series [7] the test system is APP^dp1-6 neurons. The series is described as follows: lipid analysis of APP^dp1-6 neurons. The class given is cell-based, human. The following applies: 3 days.
A further series concerns Aβ42 secretion. Kind of series: secreted Aβ42 in APP-Δcholesterol neurons. The class given is cell-based, human. As to conditions: APP E693A and F691A+E693A neurons, 10 μM, 3 days. From the text: FIGS. 4A-4F show regulation of Aβ by CE Is Mediated by a Cholesterol Binding Domain in APP. […] Green indicates amino acid sequence. Red arrow indicates CRISPR/Cas9 cut site. […] Two E693A (line 3D9 and 2B2) and one F691A+E693A line (line D12) were generated, as well as two non-gene-edited, but clonally expanded, WT lines (B10 and B11). FIGS. 4D-4F show measurements made using APP-Δcholesterol neurons with the following genotypes: WT (average from 2 independent lines), E693A (2 independent lines), and F691A+E693A (1 line) (mean±SEM, n R 3 per line). (D) Relative secreted Ab42 levels in conditioned media from purified CD184^−, CD44^−, and CD24^+ neurons (mean±SEM, n≥3 per line).

The next series deals with pTau. Kind of series: immunofluorescence of pTau epitopes in APP^dp1-6 neurons. The following applies: 10 μM, 5 days. The class given is cell-based, human. The text has this:
Vehicle alone controls (DMSO) are shown in black. […] SER, selective estrogen […] (n=4). […] NF—H, neurofilament H, axonal marker. The pThr231Tau antibody used is TG3, which detects a conformational epitope of pThr231Tau. Scale bar, 100 μm.

Setting [8] is: APP^dp1-6 neurons, 10 μM (FIG. 2C).
Setting [9] is: 0.5 mM single dose at t=0, with atorvastatin 10 μM, 5 days.

Description for Tau (PHF-1): FIGS. 7A-7D show PHF-1 staining of 4RTau-tg mouse sections. […] (FIG. 7A) Representative sections stained for PHF-1. Low power images show areas of enlargements where measurements were obtained. (FIGS. 7B-7D) Sections were analyzed with video bright field microscopy and immunoreactivity was quantified as corrected optical density. * indicated p<0.05 compared to vehicle treated 4RTau-tg mice, ** indicates p<0.005 compared to vehicle treated 4RTau-tg mice. Scale bar=200 μm in low power images and 20 μm in higher power images.
Following treatment, mice were sacrificed, brains removed and sectioned along the sagittal axis with half flash frozen and half drop fixed in 4% PFA. Fixed brains were sectioned with a vibratome (40 μm) and stained for GFAP, PHF1 (Tau) or Synaptophysin. Sections were imaged with a Leica microscope with a digital camera and analyzed with ImageJ for optical density (GFAP, Synaptophysin) or % area of neuropil (PHF1). Statistics were conducted with Prism6 using ANOVA one way analysis with Tukey-Kramer post hoc analysis.

Consider `CC(C)c1cc(C(C)C)c(CC(=O)NS(=O)(=O)Oc2c(C(C)C)cccc2C(C)C)c(C(C)C)c1` [avasimibe], for which the pThr231Tau/tTau entry is reported as “reduced” in the series with pThr231Tau/tTau [1] (APP^dp1-6 neurons, 10 μM, 5-day treatment (FIG. 2G)) and “reduced” in the series on pThr231Tau/tTau [2].

On to `CSc1cc(C)nc(SC)c1NC(=O)CN1CCN(CCSc2nc3ccccc3[nH]2)CC1` [K604], for which the pThr231Tau/tTau result in the series with pThr231Tau/tTau [1] (APP^dp1-6 neurons, 25 μM, 5-day treatment (FIG. 2G)) was “reduced”; in the series with pThr231Tau/tTau [2] it was “reduced”.

For the compound `Cc1cc(SCc2sc(-c3ccc(C(F)(F)F)cc3)nc2C)ccc1OCC(=O)O` [GW50156], the pThr231Tau/tTau result in the series with pThr231Tau/tTau [1] (setting [8]) is reported as “did not decrease”.

Turning to `COc1ccc2cc3[n+](cc2c1OC)CCc1cc2c(cc1-3)OCO2` [Berberine], the “Tau accumulation in the CA1 region of the hippocampus” value in the series with Tau (PHF-1) is on record as “no change”.

With `COC(=O)[C@H](CC(C)C)NC(=O)c1ccc(NC[C@@H](N)CS)cc1-c1cccc2ccccc12` [GGTI-298], the pThr231Tau/tTau entry in the series on pThr231Tau/tTau [1] (setting [8]) is recorded as “did not significantly reduce”.

For `O=C1Nc2ccc(Cl)cc2[C@@](C#CC2CC2)(C(F)(F)F)O1` [efavirenz, (S)-6-chloro-(cyclopropylethynyl)-1,4-dihydro-4-(trifluoromethyl)-2H-3,1-benzoxazin-2-one], in the series on iPSC-derived astrocytes, the astrocyte viability entry was “did not affect astrocyte viability even at high doses”. For the same compound, in series [3], the “adverse effects in mice” value is on record as “Major adverse effects were not observed”. In [4], the “adverse effects in HIV patients” value is listed as “significant adverse effects that include neurotoxicity”.

Turning to `CC[C@H](C)C(=O)O[C@H]1C[C@@H](C)C=C2C=C[C@H](C)[C@H](CC[C@@H]3C[C@@H](O)CC(=O)O3)[C@H]21` [lovastatin], the “pThr231Tau/tTau, dosage effect” value in the series on pThr231Tau/tTau [1] (APP^dp1-6 neurons) is recorded as “reduced pThr231Tau/tTau in a dose-dependent manner”. Besides, the “cell viability or neuronal number” value in the series on APP^dp1-6 neurons [5] is listed as “minor effects”.

Turning to `CC[C@H](C)C(=O)O[C@H]1CCC=C2C=C[C@H](C)[C@H](CC[C@@H]3C[C@@H](O)CC(=O)O3)[C@H]21` [mevastatin], the “pThr231Tau/tTau, dosage effect” value in the series with pThr231Tau/tTau [1] (APP^dp1-6 neurons) is on record as “reduced pThr231Tau/tTau in a dose-dependent manner”. In the series on APP^dp1-6 neurons [6], the “cell viability or neuronal number” value is listed as “minor effects”.

On to `C=C1[C@@H](O)[C@@H]2O[C@]3(CC[C@H](/C=C/[C@@H](C)[C@@H]4CC(C)=C[C@@]5(O[C@H](C[C@@](C)(O)C(=O)O)CC[C@H]5O)O4)O3)CC[C@H]2O[C@@H]1[C@@H](O)C[C@H](C)[C@H]1O[C@@]2(CCCCO2)CC[C@H]1C` [okadaic acid], for which, in the series on pThr231Tau/tTau [1] (1.25 nM co-treated with atorvastatin 10 μM), the “abrogation of the atorvastatin-induced decrease in pThr231Tau/tTau ratio” value is given as “Only proteasomal inhibition abrogated the decrease”.

On to mevalonate [MVA], for which, in the series with pThr231Tau/tTau [1] (setting [9]), the “rescue of the effect of atorvastatin on pThr231Tau/tTau” value (shortened to “rescue … on pThr231Tau/tTau”) is given as “rescued”.

For `F/C(COc1ccc2c(c1)[nH]c1ccccc12)=C1/CN2CCC1CC2` [YM-53601], in the series on pThr231Tau/tTau [1] (APP^dp1-6 neurons, 20 μM (FIG. 2C)), the pThr231Tau/tTau result is given as “did significantly decrease”.

With `O=S(=O)(c1ccccc1)N(CC(F)(F)F)c1ccc(C(O)(C(F)(F)F)C(F)(F)F)cc1` [T091317], in the series on pThr231Tau/tTau [1] (setting [8]), the pThr231Tau/tTau result is reported as “reduced”. Moreover, in the series with APP^dp1-6 neurons [7] (10 μM), the 24-hydroxycholesterol in media entry was “unaltered” and the desmosterol levels entry is on record as “decreased”.

With `CC(C)c1c(C(=O)Nc2ccccc2)c(-c2ccccc2)c(-c2ccc(F)cc2)n1CC[C@@H](O)C[C@@H](O)CC(=O)O` [atorvastatin], in the series on iPSC-derived astrocytes, the astrocyte viability result is recorded as “induced major astrocyte cell-death”. Further, the Aβ42 secretion entry in the series on Aβ42 secretion is “did not affect”. In the series on pTau, the pS202/T205Tau by immunofluorescence entry is listed as “reduced”, the pS396/S404Tau by immunofluorescence entry is recorded as “reduced” and the “pThr231 phosphorylation-dependent conformational Tau epitope (TG3) by immunofluorescence” value was “reduced”. Moreover, the “pThr231Tau/Tau after removal of compound” value in the series with pThr231Tau/tTau [1] (removal after five days of treatment) is “recovery”. Moreover, the “cell viability or neuronal number” value in the series with APP^dp1-6 neurons [5] was “slightly cytotoxic at higher concentrations”. Moreover, in the series on pThr231Tau/tTau [2], the pThr231Tau/tTau entry is on record as “reduced”. For the same compound, in the series on APP^dp1-6 neurons [7] (10 μM), the 7DHC levels entry is given as “trended towards decreased”, the 24-hydroxycholesterol in media entry was “unaltered” and the desmosterol levels result was “reduced”.

On to `C[C@@](O)(CCOP(=O)(O)O)CC(=O)O` [MVP, mevalonate-5-phosphate], for which the “rescue … on pThr231Tau/tTau” value in the series on pThr231Tau/tTau [1] (setting [9]) was “rescued”.

On to `CC(C)c1nc(N(C)S(C)(=O)=O)nc(-c2ccc(F)cc2)c1/C=C/[C@@H](O)C[C@@H](O)CC(=O)O` [rosuvastatin], for which the “pThr231Tau/tTau, confirmed non-toxic screening hit” value in the series on pThr231Tau/tTau [1] (APP^dp1-6 neurons, 5 μM, 5 days) is on record as “hit-list”.

For the compound `Clc1ccccc1CNCC1CCC(CNCc2ccccc2Cl)CC1` (centres unmarked) [AY-9944], the pThr231Tau/tTau result with pThr231Tau/tTau [1] (setting [8]) was “did significantly decrease; also recorded: minor effect”. For the same compound, in the series on APP^dp1-6 neurons [7] (5 μM), the 7DHC levels result is on record as “increased”, the 24-hydroxycholesterol in media entry was “decreased”, the desmosterol levels entry is given as “reduced” and the free cholesterol levels entry is listed as “reduced”.

For the compound `CC(C)C(O)CC[C@@H](C)[C@H]1CC[C@H]2[C@@H]3CC=C4C[C@@H](O)CC[C@]4(C)[C@H]3CC[C@]12C` (some centres unmarked) [24-hydroxycholesterol], the pThr231Tau/tTau result in the series with pThr231Tau/tTau [1] (setting [8]) is on record as “reduced”.

As to `C[C@@](O)(CCOP(=O)(O)OP(=O)(O)O)CC(=O)O` [MVA-5PP, mevalonate-5-pyrophosphate], the “rescue … on pThr231Tau/tTau” value in the series with pThr231Tau/tTau [1] is recorded as “rescued”.

Consider `CC(C)C[C@@H](C=O)NC(=O)[C@H](CC(C)C)NC(=O)[C@H](CC(C)C)NC(=O)OCc1ccccc1` [MG132] (Cbz-Leu-Leu-Leu-aldehyde), for which the “abrogation of the atorvastatin-induced decrease in pThr231Tau/tTau ratio” value in the series with pThr231Tau/tTau [1] (5 μM co-treated with atorvastatin 10 μM) is “abrogated the decrease”.
